Legend:
[1] = Survival (PFS, OS) of metastatic ccRCC patients in the prospective cohort (SUVEGIL and TORAVA trials), split by sCD146 variation; assay type: in vivo, human
From the text: Eligible patients for SUVEGIL and TORAVA trials were at least 18 years of age and had metastatic clear cell renal cell carcinoma (ccRCC) histologically confirmed, with the presence of measurable disease according to Response Evaluation Criteria in Solid Tumors (RECIST) v1.1. […] Patients were ineligible if they had symptomatic or uncontrolled brain metastases, an estimated lifetime less than 3 months, uncontrolled hypertension or clinically significant cardiovascular events (heart failure, prolongation of the QTinterval), history of other primary cancer. All patients gave written informed consent.
The prospective cohort includes patients from the SUVEGIL and TORAVA trials.
The SUVEGIL trial (clinicaltrial.gov, NCT00943839) was a multicenter prospective single-arm study. […] Courses repeat every 6 weeks in the absence of disease progression or unacceptable toxicity.
The TORAVA trial (clinicaltrial.gov, NCT00619268) was a randomized prospective study. Patient characteristics and results have been previously described (Negrier et al, 2011).
The % variation of plasmatic level of sCD146 was correlated with OS and PFS, defined respectively as the time from inclusion in the trial to death from all causes (for OS) and to progression, treatment cessation, or death (for PFS), censored at last follow-up for those still alive or who have not progressed.
(§1) PFS was defined as the time between blood sample collection and progression, or death from any cause, censoring those alive and progression free at last follow-up. OS was defined as the time from blood sample collection to the date of death from any cause, censoring those alive at last follow-up.
(§2) The % variation of sCD146 between diagnosis and after 1 cycle of suntinib cut-off point was determined at 120%. Kaplan Meier method was used to produce survival curves and analyses of censored data were performed using Cox models.

sCD146 = test: ELISA of sCD146 protein in 786/786R cell supernatants; assay type: cell-based; conditions: 786R cells; 10 μg/ml, 48 hr
Description: D, sCD146 protein in cell supernatants was evaluated by ELISA. […] Results are represented as the mean of three independent experiments±SEM.* p<0.05, ** p<0.01, *** p<0.001.
A, 786 and 786R cells were treated with 10 μg/ml BVZ for 48 hr. sCD146 protein in cell supernatants were evaluated by ELISA. […] Results are represented as the mean of three independent experiments±SEM. * p<0.05, ** p<0.01, *** p<0.001.

HUVEC = test: Cell viability/metabolism (XTT) in HUVEC; assay type: cell-based; conditions: 48 h
Description: FIG. 7. Regulation of expression of CD146 and angiomotin (Amot) is differently regulated in endothelial cells. […] CD146 (A) and angiomotin (B) were analyzed by qPCR. […] The cell metabolism was measured by XTT assay. […] The cell metabolism was measured by XTT assay. Results are represented as the mean of three independent experiments±SEM. * p<0.05, ** p<0.01, *** p<0.001.
(§3) Fifty microliters of sodium 3′-[1-phenylaminocarbonyl)-3,4-tetrazolium]-bis(4-methoxy-6-nitro) benzene sulfonic acid hydrate (XTT) reagent was added to each well. The assay is based on the cleavage of the yellow tetrazolium salt XTT to form an orange formazan dye by metabolically active cells. The absorbance of the formazan product, reflecting cell viability, was measured at 490 nm. Each assay was performed in quadruplicate.

[2] = PFS of patients in the retrospective validation cohort, split by sCD146 variation; assay type: in vivo, human; conditions: retrospective/confirmation cohort
Description: 13 patients from the HEPG (France) (50 mg/day, once daily for four weeks) were analyzed retrospectively.
as §1, §2

786 cells = test: Cell viability/metabolism (XTT) in 786 cells; assay type: cell-based; conditions: sCD146 50 and 100 ng/ml, 48 h
Description: FIG. 4. […] The mRNA levels of CD146 total (A), long (B) and short forms (C) and angiomotin (E) were evaluated by qPCR. D, sCD146 protein in cell supernatants was evaluated by ELISA. […] The cell metabolism was measured by XTT assay. Results are represented as the mean of three independent experiments±SEM.* p<0.05, ** p<0.01, *** p<0.001.
as §3

[3] = patients with sCD146 plasmatic level increase ≥120% between diagnosis and first cycle of treatment
[4] = patients with sCD146 variation <120% between diagnosis and first cycle of treatment

Compound | median OS ([1]; patients with sCD146 <120%) [months] | median PFS [1, 3] [months] | median PFS [1, 4] [months] | median OS ([1]; patients with sCD146 ≥120%) [months] | sCD146 secretion (sCD146) | decrease in cell proliferation (HUVEC; HUVEC, 1 or 2 μM) | PFS ([2]; patients with modulation of sCD146 <120%) [months] | PFS ([2]; patients with sCD146 ≥120%) [months] | protection from sunitinib (HUVEC; HUVEC treated with sunitinib, recombinant sCD146 50 or 100 ng/ml) | proliferation of HUVEC (HUVEC; HUVEC, recombinant sCD146 50 or 100 ng/ml) | effect on sunitinib-dependent decrease of cell metabolism (786 cells; 786 cells treated with 2.5 or 5 μM sunitinib) | cell metabolism (786 cells; 786 cells)
bevacizumab | 24.4 | 10.5 | 10.7 | 24.1 | no increase in sCD146 secretion |  |  |  |  |  |  | 
CCN(CC)CCNC(=O)c1c(C)[nH]c(/C=C2\C(=O)Nc3ccc(F)cc32)c1C [sunitinib] |  | 5.7 | 20.5 | 11 |  | about 50% | 24.8 | 2.3 |  |  |  | 
sCD146: soluble form of CD146 generated by shedding of the membrane form; used as recombinant protein in cell assays |  |  |  |  |  |  |  |  | did not protect HUVEC from sunitinib | stimulated the proliferation of HUVEC | prevents sunitinib-dependent decreased cell metabolism | increased cell metabolism at both concentrations
